Results from patent publication US20210040118A1, “IMMUNOMODULATORS, COMPOSITIONS AND METHODS THEREOF” (BETTA PHARMACEUTICALS CO., LTD, priority 2018, published 2021).

target: T1, PD-1/PD-L1 (Homo sapiens, UniProt Q9NZQ7); assay: PD-1/PD-L1 homogenous time-resolved fluorescence (HTRF) binding assay; conditions: recombinant human PD-L1 (19-238) His-tag / human PD-1 (25-167) Fc tag, class symbols
T1 construct: Recombinant human PD-L1 protein (19-238) with a His-tag at the C-terminus; purchased AcroBiosystems PD1-H5229 (PD-L1); PD1-H5257 (PD-1)
T1 sequence (Q9NZQ7 19-238): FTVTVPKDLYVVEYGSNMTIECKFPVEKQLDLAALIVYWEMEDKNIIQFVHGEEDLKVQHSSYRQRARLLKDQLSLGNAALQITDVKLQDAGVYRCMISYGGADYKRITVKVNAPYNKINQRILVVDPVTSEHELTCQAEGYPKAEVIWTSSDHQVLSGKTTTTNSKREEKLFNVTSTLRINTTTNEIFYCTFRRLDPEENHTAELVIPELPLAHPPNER
Description: Resolved Fluorescence (HTRF) Binding Assay
The assays were conducted in a standard black 384-well polystyrene plate with a final volume of 20 μL. Inhibitors were first serially diluted in DMSO and then added to the plate wells before the addition of other reaction components. The final concentration of DMSO in the assay was 1%. The assays were carried out at 25° C. in the PBS buffer (pH 7.4) with 0.05% Tween-20 and 0.1% BSA. Recombinant human PD-L1 protein (19-238) with a His-tag at the C-terminus was purchased from AcroBiosy stems (PD1-H5229). Recombinant human PD-1 protein (25-167) with Fc tag at the C-terminus was also purchased from AcroBiosystems (PD1-H5257). PD-L1 and PD-1 proteins were diluted in the assay buffer and 10 μL was added to the plate well. Plates were centrifuged and proteins were preincubated with inhibitors for 40 min. The incubation was followed by the addition of […] of HTRF detection buffer supplemented with Europium cryptate-labeled anti-human IgG (PerkinElmer-AD0212) specific for Fc and anti-His antibody conjugated to SureLight®-Allophycocyanin (APC, PerkinElmer-AD0059H). After centrifugation, the plate was incubated at 25° C. for 60 min. Before reading on a PHERAstar FS plate reader (665 nm/620 nm ratio). Final concentrations in the assay were […] PD1, 10 nM PD-L1, 1 nM europium anti-human IgG and 20 nM anti-His-Allophycocyanin. IC50 determination was performed by fitting the curve of percent control activity versus the log of the inhibitor concentration using the GraphPad Prism 5.0 software.
Data obtained for the Example compounds using the PD-1/PD-L1 homogenous time-resolved fluorescence (HTRF) binding assay described in Example A is provided in Table 4.

SMILES | IC50
Cc1nc(C(=O)Nc2cccc(-c3cccc(NC(=O)c4nc(C)c(CN5CCCC[C@H]5C(=O)O)s4)c3Cl)c2C)sc1CN1CCCC[C@H]1C(=O)O [Example 54, (2S,2'S)-1,1′-(2,2′-(2-chloro-2′-methylbiphenyl-3,3′-diyl)bis(azanediyl)bis(oxomethylene)bis(4-methylthiazole-5,2-diyl))bis(methylene)dipiperidine-2-carboxylic acid] | < 25 nM
Cc1c(Nc2nccc3cc(CN4CCCCC4C(=O)O)cnc23)cccc1-c1cccc(Nc2nccc3cc(CN4CCCCC4C(=O)O)cnc23)c1C (centres unmarked) [Example 155, 1,1′-((((2,2′-dimethyl-[1,1′-biphenyl]-3,3′-diyl)bis(azanediyl))bis(1,7-naphthyridine-8,3-diyl))bis(methylene))bis(piperidine-2-carboxylic acid)] | < 25 nM
Cc1c(NC(=O)c2cn3c(n2)CNCC3)cccc1-c1cccc(NC(=O)c2cn3c(n2)CNCC3)c1C [Example 8, N,N′-(2,2′-dimethyl-[1,1′-biphenyl]-3,3′-diyl)bis(5,6,7,8-tetrahydroimidazo[1,2-a]pyrazine-2-carboxamide)] | < 25 nM
CS(=O)(=O)NC(=O)C1(N2CCc3nc(C(=O)N4CCc5c(-c6cccc7c6CCN7C(=O)c6nc7c(s6)CN(C6(C(=O)NS(C)(=O)=O)CC6)CC7)cccc54)sc3C2)CC1 [Example 129, 1,1′-(([4,4′-biindoline]-1,1′-dicarbonyl)bis(6,7-dihydrothiazolo[5,4-c]pyridine-2,5(4H)-diyl))bis(N-(methylsulfonyl)cyclopropane-1-carboxamide)] | 25 to 100 nM
Cc1c(NC(=O)c2ccc3c(n2)CCNC3)cccc1-c1cccc(NC(=O)c2ccc3c(n2)CCN(C)C3)c1C [Example 185, N-(2,2′-dimethyl-3′-(5,6,7,8-tetrahydro-1,6-naphthyridine-2-carboxamido)-[1,1′-biphenyl]-3-yl)-6-methyl-5,6,7,8-tetrahydro-1,6-naphthyridine-2-carboxamide] | < 25 nM
CNC(=O)CN1CCc2nc(C(=O)N3CCc4c(-c5cccc6c5CCN6C(=O)c5nc6c(s5)CN(CC(=O)O)CC6)cccc43)sc2C1 [Example 108, 2-(2-(1′-(5-(2-(methylamino)-2-oxoethyl)-4,5,6,7-tetrahydrothiazolo[5,4-c]pyridine-2-carbonyl)-[4,4′-biindoline]-1-carbonyl)-6,7-dihydrothiazolo[5,4-c]pyridin-5(4H)-yl)acetic acid] | < 25 nM
Cc1c(NC(=O)c2nc3c(s2)CNCC3)cc(F)cc1-c1cc(F)cc(NC(=O)c2nc3c(s2)CNCC3)c1C [Example 96, N,N′-(5,5′-difluoro-2,2′-dimethyl-[1,1′-biphenyl]-3,3′-diyl)bis(4,5,6,7-tetrahydrothiazolo[5,4-c]pyridine-2-carboxamide)] | < 25 nM
O=C(Nc1cccc(-c2cccc(NC(=O)c3ncc(CNCCO)s3)c2Cl)c1Cl)c1ncc(CNCCO)s1 [Example 66, N,N′-(2,2′-dichloro-[1,1′-biphenyl]-3,3′-diyl)bis(5-(((2-hydroxyethyl)amino)methyl)thiazole-2-carboxamide)] | < 25 nM
O=C(c1nc2c(s1)CN(CCOCCO)CC2)N1CCc2c(-c3cccc4c3CCN4C(=O)c3nc4c(s3)CN(CCOCCO)CC4)cccc21 [Example 120, [4,4′-biindoline]-1,1′-diylbis((5-(2-(2-hydroxyethoxy)ethyl)-4,5,6,7-tetrahydrothiazolo[5,4-c]pyridin-2-yl)methanone)] | < 25 nM
O=C(O)CN1CCc2sc(C(=O)N3CCc4c(-c5cccc6c5CCN6C(=O)c5nc6c(s5)CCN(CC(=O)O)C6)cccc43)nc2C1 [Example 119, 2,2′-(([4,4′-biindoline]-1,1′-dicarbonyl)bis(6,7-dihydrothiazolo[4,5-c]pyridine-2,5(4H)-diyl))diacetic acid] | < 25 nM
Cc1c(NC(=O)c2nc3c(s2)CNCC3)cc(Cl)cc1-c1cc(Cl)cc(NC(=O)c2nc3c(s2)CNCC3)c1C [Example 93, N,N′-(5,5′-dichloro-2,2′-dimethyl-[1,1′-biphenyl]-3,3′-diyl)bis(4,5,6,7-tetrahydrothiazolo[5,4-c]pyridine-2-carboxamide)] | < 25 nM
Cc1c(-c2cccc(N(C)Cc3nc4ccc(N)cc4s3)c2C)cccc1N(C)Cc1nc2c(s1)CNCC2 [Example 22, N3-((6-aminobenzo[d]thiazol-2-yl)methyl)-N3,N3′,2,2′-tetramethyl-N3′-((4,5,6,7-tetrahydrothiazolo[5,4-c]pyridin-2-yl)methyl)-[1,1′-biphenyl]-3,3′-diamine] | > 200 nM
Cc1c(Nc2nccc3cc(CNCC(=O)O)cnc23)cccc1-c1cccc(Nc2nccc3cc(CNCC(=O)N(C)C)cnc23)c1C [Example 148, ((8-((3′-((3-(((2-(dimethylamino)-2-oxoethyl)amino)methyl)-1,7-naphthyridin-8-yl)amino)-2,2′-dimethyl-[1,1′-biphenyl]-3-yl)amino)-1,7-naphthyridin-3-yl)methyl)glycine] | < 25 nM
Cc1nc(C(=O)N2CCc3c(-c4cccc5c4CCN5C(=O)c4ncc(CN(C)CCO)s4)cccc32)sc1CN(C)C [Example 115, (5-((dimethylamino)methyl)-4-methylthiazol-2-yl)(1′-(5-(((2-hydroxyethyl)(methyl)amino)methyl)thiazole-2-carbonyl)-[4,4′-biindolin]-1-yl)methanone] | < 25 nM
Cc1c(NC(=O)c2nc3cc(N)ccc3[nH]2)cccc1-c1cccc(NC(=O)c2nc3c(s2)CNCC3)c1C [Example 12, N-(3′-(5-amino-1H-benzo[d]imidazole-2-carboxamido)-2,2′-dimethyl-[1,1′-biphenyl]-3-yl)-4,5,6,7-tetrahydrothiazolo[5,4-c]pyridine-2-carboxamide] | 25 to 100 nM
Cc1c(Nc2nccc3cc(CNCC(=O)N(C)CCO)cnc23)cccc1-c1cccc2c1CCN2C(=O)C1=NC2CCN(CC(=O)O)CC2S1 (centres unmarked) [Example 166, 2-(2-(4-(3-((3-(((2-((2-hydroxyethyl)(methyl)amino)-2-oxoethyl)amino)methyl)-1,7-naphthyridin-8-yl)amino)-2-methylphenyl)indoline-1-carbonyl)-3a,6,7,7a-tetrahydrothiazolo[5,4-c]pyridin-5(4H)-yl)acetic acid] | < 25 nM
O=C(Nc1cccc(-c2cccc(NC(=O)c3nc4c(s3)CNCC4)c2Cl)c1Cl)c1ncc(CNCCO)s1 [Example 97, N-(2,2′-dichloro-3′-(5-(((2-hydroxyethyl)amino)methyl)thiazole-2-carboxamido)-[1,1′-biphenyl]-3-yl)-4,5,6,7-tetrahydrothiazolo[5,4-c]pyridine-2-carboxamide] | < 25 nM
CC(=O)N1CCc2nc(C(=O)Nc3cccc(-c4cccc(NC(=O)c5ccc6c(n5)CCNC6)c4C)c3C)ccc2C1 [Example 182, 6-acetyl-N-(2,2′-dimethyl-3′-(5,6,7,8-tetrahydro-1,6-naphthyridine-2-carboxamido)-[1,1′-biphenyl]-3-yl)-5,6,7,8-tetrahydro-1,6-naphthyridine-2-carboxamide] | < 25 nM
O=C(c1nc2n(n1)CCNC2)N1CCc2c(-c3cccc4c3CCN4C(=O)c3nc4n(n3)CCNC4)cccc21 [Example 136, [4,4′-biindoline]-1,1′-diylbis((5,6,7,8-tetrahydro-[1,2,4]triazolo[1,5-a]pyrazin-2-yl)methanone)] | 100 to 200 nM
COC(=O)NC1(CN2CCc3nc(C(=O)N4CCc5c(-c6cccc7c6CCN7C(=O)c6nc7c(s6)CN(CC6(NC(=O)OC)CC6)CC7)cccc54)sc3C2)CC1 [Example 132, dimethyl (((([4,4′-biindoline]-1,1′-dicarbonyl)bis(6,7-dihydrothiazolo[5,4-c]pyridine-2,5(4H)-diyl))bis(methylene))bis(cyclopropane-1,1-diyl))dicarbamate] | 25 to 100 nM
O=C(Nc1cccc(-c2cccc(NC(=O)c3ncc(CN[C@H](C(=O)O)C4CCOCC4)s3)c2Cl)c1Cl)c1ncc(CN[C@H](C(=O)O)C2CCOCC2)s1 [Example 71, (2S,2'S)-2,2′-((((((2,2′-dichloro-[1,1′-biphenyl]-3,3′-diyl)bis(azanediyl))bis(carbonyl))bis(thiazole-2,5-diyl))bis(methylene))bis(azanediyl))bis(2-(tetrahydro-2H-pyran-4-yl)acetic acid)] | < 25 nM

same assay, conditions: recombinant human PD-L1 (19-238) His-tag / human PD-1 (25-167) Fc tag, numeric values

SMILES | IC50
Cc1c(NC(=O)c2nc3c(s2)CNCC3)cccc1-c1ccccc1 [Com. EX. No. 1, N-(2-methyl-[1,1′-biphenyl]-3-yl)-4,5,6,7-tetrahydrothiazolo[5,4-c]pyridine-2-carboxamide, reference compound] | 212 nM
Cc1c(NC(=O)c2nnc(C3(N)CCC3)s2)cccc1-c1cccc(NC(=O)c2nnc(C3(N)CCC3)s2)c1C [Example 27, N,N′-(2,2′-dimethyl-[1,1′-biphenyl]-3,3′-diyl)bis(5-(1-aminocyclobutyl)-1,3,4-thiadiazole-2-carboxamide)] | 3.13 nM
